The text below walks through data of ChEMBL document CHEMBL1150230, “Mappain, a new cytotoxic prenylated stilbene from Macaranga mappa” (J Nat Prod, 2001).

Holding throughout (assay type): functional, cell-based
In assay [1] the test system is SK-OV-3. Put plainly: Cytotoxicity against multidrug-sensitive human SKOV3 cells by SRB assay. (In SRB staining, fixed cells bind dye roughly in proportion to their protein.)
A short description of assay [2]: Cytotoxicity against multidrug-resistant human SKVLB1cells by SRB assay.
Assay [3] relates to MDA-MB-435. Kind of assay: Cytotoxicity against multidrug-sensitive human MDA-MB-435 cells by SRB assay.

Each structure is given as a SMILES string.

Usually IC50 stands for the concentration that gives 50% inhibition. On to `CC(C)=CCC/C(C)=C/Cc1cc(/C=C/c2cc(O)c(CC=C(C)C)c(O)c2)cc(O)c1O` [MAPPAIN], for which the values for the IC50 in assay [1], in assay [2] and in assay [3] were 1.3 µM, 1.3 µM and 1 µM, respectively.
